# From patent publication US11364264B2, “Ex vivo antigen-presenting cells or activated CD-positive T cells for treatment of cancer” (priority 2016, dated 2022)
# Read-outs that look alike come from different tables or passages of the source.
# Key:
# [1] = tested on: AE17 mouse mesothelioma cell line; experiment: Ex vivo restimulation with recombinant mesothelin, intracellular IFN-γ in CD8+ T cells, AE17 mice; conditions: restimulated with recombinant mesothelin ex vivo
# [2] = tested on: 40L mouse mesothelioma cell line; experiment: Ex vivo restimulation with recombinant mesothelin, intracellular IFN-γ in CD8+ T cells, 40L mice; conditions: splenic CD8+ T cells, restimulated with recombinant mesothelin ex vivo
# [3] = tested on: 40L mouse mesothelioma cell line; experiment: Immune profiling by flow cytometry of tissues from 40L tumor-bearing mice; assay type: in vivo; conditions: for Proportion of CD8+ T cells in total live cells compared to saline: one week after last treatment
# [4] = tested on: Luc-40L mesothelioma cancer cells; experiment: Luc-40L mesothelioma model, survival (Example 4); assay type: in vivo, mouse; conditions: VIC-008 20 μg and/or AMD3100 1 μg/g body weight once a week for four weeks
# [5] = tested on: Luc-AE17 mesothelioma cancer cells; experiment: Luc-AE17 mesothelioma model, survival (Example 4); assay type: in vivo, mouse; conditions: VIC-008 20 μg and/or AMD3100 1 μg/g body weight once a week for four weeks
# [6] = tested on: GFP-Foxp3 expressing CD4+ splenocytes (Treg cells); conditions: AMD3100 5 μg/ml, 24 hours
# [7] = tested on: 40L mouse mesothelioma cell line; experiment: 40L intraperitoneal malignant mesothelioma model: tumor weight and survival (Example 5); assay type: in vivo; conditions: VIC-008 20 μg per mouse, AMD3100 1 mg/kg i.p. weekly x4
# [8] = tested on: AE17 mouse mesothelioma cell line; assay type: in vivo; conditions: for Proportion of CD8+ T cells in total live cells compared to saline: one week after last treatment
# [9] = tested on: AE17 mouse mesothelioma cell line; experiment: AE17 intraperitoneal malignant mesothelioma model: tumor weight and survival (Example 5); assay type: in vivo; conditions: VIC-008 20 μg per mouse, AMD3100 1 mg/kg i.p. weekly x4
compound,measurement,setting,value
c1cc(CN2CCCNCCNCCCNCC2)ccc1CN1CCCNCCNCCCNCC1 [AMD3100],Mesothelin-specific IFN-γ expression in CD8+ T cells compared to saline,[1]; lymph node CD8+ T cells,did not enhance
same,Mesothelin-specific IFN-γ expression in CD8+ T cells compared to saline,[1]; splenic CD8+ T cells,did not enhance
same,Mesothelin-specific IFN-γ expression in CD8+ T cells compared to saline,[2],did not enhance
same,Proportion of PD-1-expressing CD8+ T cells compared to saline,[3]; spleens,significantly fewer
same,Proportions of Treg cells,[3]; spleens,did not alter
same,Proportion of CD8+ T cells in total live cells compared to saline,[3]; spleens,did not increase
same,IL-2+ CD40L+ cells among the Foxp3+ CD25− Treg population,[3]; tumors,significantly more cells
same,Proportion of PD-1-expressing CD8+ T cells compared to saline,[3]; tumors,significantly fewer
same,Proportions of Treg in tumors compared to saline,[3]; tumors,significantly decreased
same,Ratio of CD8+ T cells to Treg in tumors compared to saline,[3]; tumors,increased
same,Ratio of CD25− cells to CD25+ cells within the Foxp3+ population,[3]; tumors,significantly increased
same,Proportion of CD8+ T cells in total live cells compared to saline,[3]; tumors,did not increase
same,Survival of tumor-bearing mice compared to saline,[4],slight effect on survival
same,Survival of tumor-bearing mice compared to saline,[5],slight effect on survival
same,Ratio of the proportion of CD25− cells to CD25+ cells in the Foxp3+ CD4+ population,[6]; no anti-CD3/CD28 stimulation,did not change
same,Conversion of Foxp3+ CD25− Treg into IL-2+ CD40L+ cells,"[6]; with anti-CD3/CD28 antibodies (1 μg/ml), P=0.0015",converted more
same,Ratio of the proportion of CD25− cells to CD25+ cells in the Foxp3+ CD4+ population,"[6]; with anti-CD3/CD28 antibodies (1 μg/ml), P=0.0017",significantly increased
same,Animal survival compared to saline,[7],only modest benefit to survival
same,Cell ratio of CD8+ T cells to Treg cells compared to saline,[8]; lymph nodes,significantly increased
same,IL-2+ CD40L+ cells among the Foxp3+ CD25− Treg population,[8]; lymph nodes,significantly more cells
same,Proportion of PD-1-expressing CD8+ T cells compared to saline,[8]; lymph nodes,significantly fewer
same,Ratio of CD25− cells to CD25+ cells within the Foxp3+ population,[8]; lymph nodes,significantly increased
same,Treg in the lymph nodes,[8]; lymph nodes,generally reduced
same,Proportion of CD8+ T cells in total live cells compared to saline,[8]; lymph nodes,did not increase
same,Proportion of PD-1-expressing CD8+ T cells compared to saline,[8]; spleens,significantly fewer
same,Proportion of CD8+ T cells in total live cells compared to saline,[8]; spleens,did not increase
same,Proportion of PD-1-expressing CD8+ T cells compared to saline,[8]; tumors,significantly fewer
same,Proportions of Treg in tumors compared to saline,[8]; tumors,significantly decreased
same,Ratio of CD8+ T cells to Treg in tumors compared to saline,[8]; tumors,increased
same,Proportion of CD8+ T cells in total live cells compared to saline,[8]; tumors,did not increase
same,Animal survival compared to saline,[9],only modest benefit to survival
